Assay results reported in PubChem BioAssay AID2060483 (Molecular Pharmacology Branch, DTP, NCI, 2025).

Tested on: K24384-001-R-PDC complex spheroids, viability
Experiment: Anticancer human tumor K24384-001-R-PDC patient-derived pancreatic adenocarcinoma cell line growth inhibition [GQUAD]
Conditions: for IC50: curve of first compound; for viability, T/C: stronger effect = lower value
How it was run: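 Multi-cell-type spheroids of tumor cells with HUVEC and mesenchymal stem cells, treated with drug combinations. Concentrations descend in half-log steps from near clinical Cmax, or from 10 microM where Cmax is unknown; viability read-out.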

[1] = second compound 0.0316 µM, first compound 0.0316 µM
[2] = second compound 0.0316 µM, first compound 0.1 µM
[3] = second compound 0.0316 µM, first compound 0.316 µM
[4] = second compound 0.0316 µM, first compound 1 µM
[5] = second compound 0.0316 µM, first compound 3.16 µM
[6] = second compound 0.0316 µM, first compound 10 µM
[7] = second compound 0.1 µM, first compound 0.0316 µM
[8] = second compound 0.1 µM, first compound 0.1 µM
[9] = second compound 0.1 µM, first compound 0.316 µM
[10] = second compound 0.1 µM, first compound 1 µM
[11] = second compound 0.1 µM, first compound 3.16 µM
[12] = second compound 0.1 µM, first compound 10 µM
[13] = second compound 0.316 µM, first compound 0.0316 µM
[14] = second compound 0.316 µM, first compound 0.1 µM
[15] = second compound 0.316 µM, first compound 0.316 µM
[16] = second compound 0.316 µM, first compound 1 µM
[17] = second compound 0.316 µM, first compound 3.16 µM
[18] = second compound 0.316 µM, first compound 10 µM
[19] = second compound 1 µM, first compound 0.0316 µM
[20] = second compound 1 µM, first compound 0.1 µM
[21] = second compound 1 µM, first compound 0.316 µM
[22] = second compound 1 µM, first compound 1 µM
[23] = second compound 1 µM, first compound 3.16 µM
[24] = second compound 1 µM, first compound 10 µM
[25] = second compound 3.16 µM, first compound 0.0316 µM
[26] = second compound 3.16 µM, first compound 0.1 µM
[27] = second compound 3.16 µM, first compound 0.316 µM
[28] = second compound 3.16 µM, first compound 1 µM
[29] = second compound 3.16 µM, first compound 3.16 µM
[30] = second compound 3.16 µM, first compound 10 µM
[31] = second compound 10 µM, first compound 0.0316 µM
[32] = second compound 10 µM, first compound 0.1 µM
[33] = second compound 10 µM, first compound 0.316 µM
[34] = second compound 10 µM, first compound 1 µM
[35] = second compound 10 µM, first compound 3.16 µM
[36] = second compound 10 µM, first compound 10 µM
[37] = second compound 0.0316 µM, first compound 0.000999 µM
[38] = second compound 0.0316 µM, first compound 0.00316 µM
[39] = second compound 0.0316 µM, first compound 0.00999 µM
[40] = second compound 0.0316 µM, first compound 0.0999 µM
[41] = second compound 0.1 µM, first compound 0.000999 µM
[42] = second compound 0.1 µM, first compound 0.00316 µM
[43] = second compound 0.1 µM, first compound 0.00999 µM
[44] = second compound 0.1 µM, first compound 0.0999 µM
[45] = second compound 0.316 µM, first compound 0.000999 µM
[46] = second compound 0.316 µM, first compound 0.00316 µM
[47] = second compound 0.316 µM, first compound 0.00999 µM
[48] = second compound 0.316 µM, first compound 0.0999 µM
[49] = second compound 1 µM, first compound 0.000999 µM
[50] = second compound 1 µM, first compound 0.00316 µM
[51] = second compound 1 µM, first compound 0.00999 µM
[52] = second compound 1 µM, first compound 0.0999 µM
[53] = second compound 3.16 µM, first compound 0.000999 µM
[54] = second compound 3.16 µM, first compound 0.00316 µM
[55] = second compound 3.16 µM, first compound 0.00999 µM
[56] = second compound 3.16 µM, first compound 0.0999 µM
[57] = second compound 10 µM, first compound 0.000999 µM
[58] = second compound 10 µM, first compound 0.00316 µM
[59] = second compound 10 µM, first compound 0.00999 µM
[60] = second compound 10 µM, first compound 0.0999 µM
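Also: spheroids exposed to compounds for seven days.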

## CC(C)n1c(=O)n(C)c2cnc3cc(F)c(-c4ccc(OCCCN5CCCCC5)nc4)cc3c21 + Cc1[nH]c2ccc(F)cc2c1-c1nc2c3cccnc3c3ncccc3c2[nH]1
Second compound 0.0316 µM
  IC50: > 10000 nM
Second compound 0.1 µM
  IC50: > 10000 nM
Second compound 0.316 µM
  IC50: > 10000 nM
Second compound 1 µM
  IC50: > 10000 nM
Second compound 3.16 µM
  IC50: > 10000 nM
Second compound 10 µM
  IC50: > 10000 nM
[1]
  viability, T/C: 108%
[2]
  viability, T/C: 96.1%
[3]
  viability, T/C: 126%
[4]
  viability, T/C: 110%
[5]
  viability, T/C: 122%
[6]
  viability, T/C: 87.5%
[7]
  viability, T/C: 92.1%
[8]
  viability, T/C: 129%
[9]
  viability, T/C: 110%
[10]
  viability, T/C: 116%
[11]
  viability, T/C: 157%
[12]
  viability, T/C: 91.7%
[13]
  viability, T/C: 87.1%
[14]
  viability, T/C: 100%
[15]
  viability, T/C: 100%
[16]
  viability, T/C: 96.6%
[17]
  viability, T/C: 125%
[18]
  viability, T/C: 146%
[19]
  viability, T/C: 104%
[20]
  viability, T/C: 107%
[21]
  viability, T/C: 101%
[22]
  viability, T/C: 99.1%
[23]
  viability, T/C: 134%
[24]
  viability, T/C: 107%
[25]
  viability, T/C: 78.6%
[26]
  viability, T/C: 89.2%
[27]
  viability, T/C: 79.9%
[28]
  viability, T/C: 99.4%
[29]
  viability, T/C: 99.1%
[30]
  viability, T/C: 83.3%
[31]
  viability, T/C: 71.9%
[32]
  viability, T/C: 73.4%
[33]
  viability, T/C: 71.1%
[34]
  viability, T/C: 96.3%
[35]
  viability, T/C: 79.4%
[36]
  viability, T/C: 72.1%

## CCc1c2c(nc3ccc(O)cc13)-c1cc3c(c(=O)n1C2)COC(=O)[C@]3(O)CC + Cc1[nH]c2ccc(F)cc2c1-c1nc2c3cccnc3c3ncccc3c2[nH]1
Second compound 0.0316 µM
  IC50: 9.41 nM
Second compound 0.1 µM
  IC50: 11.4 nM
Second compound 0.316 µM
  IC50: 9.43 nM
Second compound 1 µM
  IC50: 11.7 nM
Second compound 3.16 µM
  IC50: 6.05 nM
Second compound 10 µM
  IC50: 4.02 nM
[37]
  viability, T/C: 96.3%
[38]
  viability, T/C: 62.2%
[39]
  viability, T/C: 53.5%
[1]
  viability, T/C: 38.9%
[40]
  viability, T/C: 29.3%
[3]
  viability, T/C: 27.2%
[41]
  viability, T/C: 79.8%
[42]
  viability, T/C: 72.7%
[43]
  viability, T/C: 51.5%
[7]
  viability, T/C: 33.1%
[44]
  viability, T/C: 31.3%
[9]
  viability, T/C: 21.4%
[45]
  viability, T/C: 72%
[46]
  viability, T/C: 61.3%
[47]
  viability, T/C: 47.5%
[13]
  viability, T/C: 41.8%
[48]
  viability, T/C: 28.3%
[15]
  viability, T/C: 23.7%
[49]
  viability, T/C: 70.6%
[50]
  viability, T/C: 57.1%
[51]
  viability, T/C: 51.5%
[19]
  viability, T/C: 42.2%
[52]
  viability, T/C: 39.9%
[21]
  viability, T/C: 26.8%
[53]
  viability, T/C: 65%
[54]
  viability, T/C: 55.5%
[55]
  viability, T/C: 41.3%
[25]
  viability, T/C: 38.1%
[56]
  viability, T/C: 30.8%
[27]
  viability, T/C: 13.7%
[57]
  viability, T/C: 60.4%
[58]
  viability, T/C: 48.9%
[59]
  viability, T/C: 43.8%
[31]
  viability, T/C: 28.4%
[60]
  viability, T/C: 15.1%
[33]
  viability, T/C: 11%

## Cn1ncnc1[C@H]1c2n[nH]c(=O)c3cc(F)cc(c23)N[C@@H]1c1ccc(F)cc1 + Cc1[nH]c2ccc(F)cc2c1-c1nc2c3cccnc3c3ncccc3c2[nH]1
Second compound 0.0316 µM
  IC50: > 316 nM
Second compound 0.1 µM
  IC50: > 316 nM
Second compound 0.316 µM
  IC50: > 316 nM
Second compound 1 µM
  IC50: > 316 nM
Second compound 3.16 µM
  IC50: > 316 nM
Second compound 10 µM
  IC50: > 316 nM
[37]
  viability, T/C: 97.8%
[38]
  viability, T/C: 94.4%
[39]
  viability, T/C: 99.6%
[1]
  viability, T/C: 92%
[40]
  viability, T/C: 102%
[3]
  viability, T/C: 90.4%
[41]
  viability, T/C: 87.9%
[42]
  viability, T/C: 98.5%
[43]
  viability, T/C: 90.3%
[7]
  viability, T/C: 91%
[44]
  viability, T/C: 97.1%
[9]
  viability, T/C: 93.2%
[45]
  viability, T/C: 86.7%
[46]
  viability, T/C: 103%
[47]
  viability, T/C: 93%
[13]
  viability, T/C: 89.5%
[48]
  viability, T/C: 93%
[15]
  viability, T/C: 77.9%
[49]
  viability, T/C: 95.3%
[50]
  viability, T/C: 100%
[51]
  viability, T/C: 95.3%
[19]
  viability, T/C: 81.8%
[52]
  viability, T/C: 85.9%
[21]
  viability, T/C: 80.8%
[53]
  viability, T/C: 74%
[54]
  viability, T/C: 92.9%
[55]
  viability, T/C: 72.3%
[25]
  viability, T/C: 73.5%
[56]
  viability, T/C: 72.4%
[27]
  viability, T/C: 67.3%
[57]
  viability, T/C: 64.3%
[58]
  viability, T/C: 79%
[59]
  viability, T/C: 57.2%
[31]
  viability, T/C: 76.1%
[60]
  viability, T/C: 71.2%
[33]
  viability, T/C: 60.4%

## O=C(c1cc(Cc2n[nH]c(=O)c3ccccc23)ccc1F)N1CCN(C(=O)C2CC2)CC1 + Cc1[nH]c2ccc(F)cc2c1-c1nc2c3cccnc3c3ncccc3c2[nH]1
Second compound 0.0316 µM
  IC50: > 10000 nM
Second compound 0.1 µM
  IC50: > 10000 nM
Second compound 0.316 µM
  IC50: > 10000 nM
Second compound 1 µM
  IC50: > 10000 nM
Second compound 3.16 µM
  IC50: > 10000 nM
Second compound 10 µM
  IC50: > 10000 nM
[1]
  viability, T/C: 101%
[2]
  viability, T/C: 94%
[3]
  viability, T/C: 99.6%
[4]
  viability, T/C: 94.3%
[5]
  viability, T/C: 84.4%
[6]
  viability, T/C: 93.1%
[7]
  viability, T/C: 103%
[8]
  viability, T/C: 104%
[9]
  viability, T/C: 147%
[10]
  viability, T/C: 98.7%
[11]
  viability, T/C: 89.8%
[12]
  viability, T/C: 83.9%
[13]
  viability, T/C: 96.8%
[14]
  viability, T/C: 97.4%
[15]
  viability, T/C: 95.7%
[16]
  viability, T/C: 85.7%
[17]
  viability, T/C: 82.3%
[18]
  viability, T/C: 91.1%
[19]
  viability, T/C: 78.1%
[20]
  viability, T/C: 88%
[21]
  viability, T/C: 90.5%
[22]
  viability, T/C: 87.5%
[23]
  viability, T/C: 89%
[24]
  viability, T/C: 69.7%
[25]
  viability, T/C: 82.9%
[26]
  viability, T/C: 78.1%
[27]
  viability, T/C: 64.3%
[28]
  viability, T/C: 77.9%
[29]
  viability, T/C: 82%
[30]
  viability, T/C: 67.3%
[31]
  viability, T/C: 69.7%
[32]
  viability, T/C: 70.7%
[33]
  viability, T/C: 62.5%
[34]
  viability, T/C: 69%
[35]
  viability, T/C: 74.5%
[36]
  viability, T/C: 56.1%
